Results as given in patent US11358969B2, “Indole AHR inhibitors and uses thereof” (Ikena Oncology, Inc., priority 2017, dated 2022).

Target: T1, AHR (UniProt P35869)
T1 construct: IC50
T1 sequence (P35869 1-848): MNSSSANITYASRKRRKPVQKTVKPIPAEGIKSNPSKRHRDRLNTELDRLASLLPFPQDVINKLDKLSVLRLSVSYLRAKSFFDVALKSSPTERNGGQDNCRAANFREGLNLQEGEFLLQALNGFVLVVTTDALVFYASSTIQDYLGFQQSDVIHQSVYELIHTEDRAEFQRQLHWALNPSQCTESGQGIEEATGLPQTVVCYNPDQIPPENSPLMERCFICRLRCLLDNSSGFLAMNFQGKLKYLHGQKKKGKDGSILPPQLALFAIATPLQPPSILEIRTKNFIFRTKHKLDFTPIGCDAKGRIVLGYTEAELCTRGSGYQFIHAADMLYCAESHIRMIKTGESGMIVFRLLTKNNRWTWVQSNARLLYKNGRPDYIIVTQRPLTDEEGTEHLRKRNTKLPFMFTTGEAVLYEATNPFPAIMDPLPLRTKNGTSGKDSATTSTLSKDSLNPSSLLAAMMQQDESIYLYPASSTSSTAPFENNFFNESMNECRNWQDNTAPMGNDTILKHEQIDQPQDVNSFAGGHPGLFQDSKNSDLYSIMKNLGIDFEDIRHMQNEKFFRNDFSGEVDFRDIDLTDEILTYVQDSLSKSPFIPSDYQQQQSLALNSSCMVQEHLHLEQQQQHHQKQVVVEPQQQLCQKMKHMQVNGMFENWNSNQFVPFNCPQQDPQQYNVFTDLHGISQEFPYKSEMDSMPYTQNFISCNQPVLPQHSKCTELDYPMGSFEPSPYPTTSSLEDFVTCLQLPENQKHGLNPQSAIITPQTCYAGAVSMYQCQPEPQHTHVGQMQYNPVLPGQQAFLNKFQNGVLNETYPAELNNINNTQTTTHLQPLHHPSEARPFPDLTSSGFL
Experiment: DRE-Luciferase Reporter Assay (Alternate Method) (Example 1B)
Format: cell-based, murine or human
Details: cell line and AHR activating ligand not specified

Compound | IC50 [nM]
NC(=O)c1cnn2c(NC3CCc4[nH]c5c(F)cccc5c4C3)cc(-c3cncc(F)c3)nc12 (stereo not drawn) [I-231] | > 1500
CC(C)n1cnc2c(NCCc3ccc(O)cc3)nc(-c3csc4ccccc34)nc21 [I-233] | 500 to 1000
CC(C)c1cnn2c(N[C@@H]3Cc4ccc(O)cc4C3)cc(-c3cncc(F)c3)nc12 [I-234, (2R)-2-[[5-(5-Fluoro-3-pyridyl)-3-isopropyl-pyrazolo[1,5-a]pyrimidin-7-yl]amino]indan-5-ol] | 500 to 1000
COc1cncc(-c2cc(NC3CCc4[nH]c5ccccc5c4C3)n3ncc(C(C)C)c3n2)c1 (stereo not drawn) [I-236] | > 1500
CC(C)c1cnn2c(NC3CCc4[nH]c5ccccc5c4C3)cc(-c3cccc(F)c3)nc12 (stereo not drawn) [I-238] | > 1500
CC(C)c1cnn2c(NC3CCc4[nH]c5ccccc5c4C3)cc(-c3ccc4c(c3)OCO4)nc12 (stereo not drawn) [I-239] | > 1500
COc1ccccc1-c1cc(NCCc2c[nH]c3ccccc23)n2ncc(C(C)C)c2n1 [I-240, N-[2-(1H-indol-3-yl)ethyl]-3-isopropyl-5-(2-methoxyphenyl)pyrazolo[1,5-a]pyrimidin-7-amine] | > 1500
Cc1cnn2c(N[C@@H]3CCc4[nH]c5c(F)cc(F)cc5c4C3)cc(-c3cncc(F)c3)nc12 [I-243a] | > 1500
Cc1cnn2c(N[C@H]3CCc4[nH]c5c(F)cc(F)cc5c4C3)cc(-c3cncc(F)c3)nc12 [I-243b] | > 1500
CC(C)c1cnn2c(N[C@@H]3CCc4[nH]c5ccccc5c4C3)cc(-c3cccnc3)nc12 [I-245, (3R)—N-[3-Isopropyl-5-(3-pyridyl)pyrazolo[1,5-a]pyrimidin-7-yl]-2,3,4,9-tetrahydro-1H-carbazol-3-amine] | > 1500
CC(C)c1cnn2c(NCCc3c[nH]c4ccccc34)cc(-c3ccc4c(c3)OCO4)nc12 [I-246, 5-(1,3-Benzodioxol-5-yl)-N-[2-(1H-indol-3-yl)ethyl]-3-isopropyl-pyrazolo[1,5-a]pyrimidin-7-amine] | 1000 to 1500
CC(C)c1cnn2c(NC3CCc4[nH]c5ccccc5c4C3)nc(N(C)C)nc12 (stereo not drawn) [I-250] | > 1500
CN1CCN(C(=O)c2cnn3c(NC4CCc5[nH]c6ccccc6c5C4)nc(-c4cncc(F)c4)nc23)CC1 (stereo not drawn) [I-251] | > 1500
CC(C)c1cnn2c(N[C@@H]3CCc4[nH]c5ccccc5c4C3)nc(N3CCOCC3)nc12 [I-254, (3R)—N-(8-Isopropyl-2-morpholino-pyrazolo[1,5-a][1,3,5]triazin-4-yl)-2,3,4,9-tetrahydro-1H-carbazol-3-amine] | > 1500
CC(C)c1cnn2c(N[C@@H]3CCc4[nH]c5ccccc5c4C3)nc(C3CCOCC3)nc12 [I-258, (3R)—N-(8-Isopropyl-2-tetrahydropyran-4-yl-pyrazolo[1,5-a][1,3,5]triazin-4-yl)-2,3,4,9-tetrahydro-1H-carbazol-3-amine] | > 1500
CC(C)c1cnn2c(NC3CCc4[nH]c5ccccc5c4C3)nc(N3CCN(C)CC3)nc12 (stereo not drawn) [I-260] | > 1500
CC(C)c1cnn2c(NC3CCc4[nH]c5ccccc5c4C3)nc(-c3cccc(OC(F)(F)F)c3)nc12 (stereo not drawn) [I-261] | > 1500
CC(C)c1cnn2c(N[C@H]3Cc4[nH]c5ccccc5c4C3)nc(-c3cncc(F)c3)nc12 [I-263b, (2R)—N-[2-(5-fluoro-3-pyridyl)-8-isopropyl-pyrazolo[1,5-a][1,3,5]triazin-4-yl]-1,2,3,4-tetrahydrocyclopenta[b]indol-2-amine] | 1000 to 1500
CC(C)c1cnn2c(N[C@@H]3CCc4[nH]c5ccccc5c4C3)nc(N3CCCCC3)nc12 [I-264, (3R)—N-[8-Isopropyl-2-(1-piperidyl)pyrazolo[1,5-a][1,3,5]triazin-4-yl]-2,3,4,9-tetrahydro-1H-carbazol-3-amine] | > 1500
NC(=O)c1cnn2c(N[C@@H]3CCc4[nH]c5ccccc5c4C3)nc(-c3cncc(F)c3)nc12 [I-265, 2-(5-Fluoro-3-pyridyl)-4-[[(3R)-2,3,4,9-tetrahydro-1H-carbazol-3-yl]amino]pyrazolo[1,5-a][1,3,5]triazine-8-carboxamide] | < 500
CC(C)c1cnn2c(NCCc3c[nH]c(N)n3)nc(-c3cncc(F)c3)nc12 [I-266] | > 1500
Fc1cncc(-c2nc(N[C@@H]3CCc4[nH]c5ccccc5c4C3)n3ncc(C(F)(F)F)c3n2)c1 [I-267, (3R)—N-[2-(5-Fluoro-3-pyridyl)-8-(trifluoromethyl)pyrazolo[1,5-a][1,3,5]triazin-4-yl]-2,3,4,9-tetrahydro-1H-carbazol-3-amine] | < 500
CC(C)c1cnn2c(NC3CCc4[nH]c5ccccc5c4C3)nc(C3CCCCC3)nc12 (stereo not drawn) [I-268] | > 1500
CC(C)c1cnn2c(NC3CCc4[nH]c5ccccc5c4C3)nc(-c3ccc(OC(F)(F)F)cc3)nc12 (stereo not drawn) [I-269] | > 1500

Next, values leading:

IC50 [nM] | Compound
< 500 | C=Cc1cnn2c(NCCc3c[nH]c4ccccc34)cc(-c3cncc(F)c3)nc12 [I-230, 5-(5-Fluoro-3-pyridyl)-N-[2-(1H-indol-3-yl)ethyl]-3-vinyl-pyrazolo[1,5-a]pyrimidin-7-amine]
< 500 | Cc1cnn2c(N[C@@H]3Cc4ccc(O)cc4C3)cc(-c3cncc(F)c3)nc12 [I-232, (2R)-2-[[5-(5-Fluoro-3-pyridyl)-3-methyl-pyrazolo[1,5-a]pyrimidin-7-yl]amino]indan-5-ol]
< 500 | CCc1cnn2c(NCCc3c[nH]c4ccccc34)cc(-c3cncc(F)c3)nc12 [I-237, 3-Ethyl-5-(5-fluoro-3-pyridyl)-N-[2-(1H-indol-3-yl)ethyl]pyrazolo[1,5-a]pyrimidin-7-amine]
< 500 | CC(C)c1cnn2c(NCCc3c[nH]c4ccccc34)cc(-c3cncnc3)nc12 [I-241, N-[2-(1H-Indol-3-yl)ethyl]-3-isopropyl-5-pyrimidin-5-yl-pyrazolo[1,5-a]pyrimidin-7-amine]
< 500 | CC(C)c1cnn2c(NCCc3c[nH]c4ccccc34)cc(-c3cccc(F)c3)nc12 [I-242, 5-(3-fluorophenyl)-N-[2-(1H-indol-3-yl)ethyl]-3-isopropyl-pyrazolo[1,5-a]pyrimidin-7-amine]
< 500 | CC(C)c1cnn2c(N[C@H]3CCc4[nH]c(-c5ccccc5)cc4C3)nc(-c3cncc(F)c3)nc12 [I-249a, 2-(5-Fluoro-3-pyridyl)-8-isopropyl-N-[(5S)-2-phenyl-4,5,6,7-tetrahydro-1H-indol-5-yl]pyrazolo[1,5-a][1,3,5]triazin-4-amine]
< 500 | CC(C)c1cnn2c(N[C@@H]3CCc4[nH]c(-c5ccccc5)cc4C3)nc(-c3cncc(F)c3)nc12 [I-249b, 2-(5-Fluoro-3-pyridyl)-8-isopropyl-N-[(5R)-2-phenyl-4,5,6,7-tetrahydro-1H-indol-5-yl]pyrazolo[1,5-a][1,3,5]triazin-4-amine]
< 500 | Fc1cncc(-c2nc(N[C@H]3CCc4[nH]ccc4C3)c3ncccc3n2)c1 [I-252a, 2-(5-Fluoro-3-pyridyl)-N-[(5S)-4,5,6,7-tetrahydro-1H-indol-5-yl]pyrido[3,2-d]pyrimidin-4-amine]
< 500 | Fc1cncc(-c2nc(N[C@@H]3CCc4[nH]ccc4C3)c3ncccc3n2)c1 [I-252b, 2-(5-Fluoro-3-pyridyl)-N-[(5R)-4,5,6,7-tetrahydro-1H-indol-5-yl]pyrido[3,2-d]pyrimidin-4-amine]
< 500 | Fc1cncc(-c2nc(N[C@@H]3CCc4[nH]c5ccccc5c4C3)n3ncc(-c4ccn[nH]4)c3n2)c1 [I-253, (3R)—N-[2-(5-Fluoro-3-pyridyl)-8-(1H-pyrazol-5-yl)pyrazolo[1,5-a][1,3,5]triazin-4-yl]-2,3,4,9-tetrahydro-1H-carbazol-3-amine]
< 500 | CC(C)c1cnn2c(N[C@@H]3CCc4[nH]c5ccccc5c4C3)nc(-c3cccnc3)nc12 [I-255, (3R)—N-[8-Isopropyl-2-(3-pyridyl)pyrazolo[1,5-a][1,3,5]triazin-4-yl]-2,3,4,9-tetrahydro-1H-carbazol-3-amine]
< 500 | Fc1cncc(-c2nc(N[C@@H]3CCc4[nH]c5ccccc5c4C3)c3nccn3n2)c1 [I-256, (3R)—N-[2-(5-fluoro-3-pyridyl)imidazo[2,1-f][1,2,4]triazin-4-yl]-2,3,4,9-tetrahydro-1H-carbazol-3-amine]
< 500 | Fc1cncc(-c2nc(NCCc3c[nH]c4ccccc34)c3ncccc3n2)c1 [I-257, 2-(5-Fluoro-3-pyridyl)-N-[2-(1H-indol-3-yl)ethyl]pyrido[3,2-d]pyrimidin-4-amine]
< 500 | Cc1cnn2c(N[C@@H]3CCc4[nH]ccc4C3)nc(-c3cncc(F)c3)nc12 [I-259b, 2-(5-Fluoro-3-pyridyl)-8-methyl-N-[(5R)-4,5,6,7-tetrahydro-1H-indol-5-yl]pyrazolo[1,5-a][1,3,5]triazin-4-amine]
< 500 | O=C(c1cnn2c(N[C@@H]3CCc4[nH]c5ccccc5c4C3)nc(-c3cncc(F)c3)nc12)N1CCOCC1 [I-262, [2-(5-Fluoro-3-pyridyl)-4-[[(3R)-2,3,4,9-tetrahydro-1H-carbazol-3-yl]amino]pyrazolo[1,5-a][1,3,5]triazin-8-yl]-morpholino-methanone]
